Here are results for 7 compounds from patent publication US20230270677A1, “LONG-ACTING THERAPEUTIC AGENT COMBINATIONS AND METHODS THEREOF” (University of Washington, priority 2020, published 2023).

Where two headings read alike, the source gives them in different places.

One data set concerns HIV-1. To be noted: read-out: therapeutically effective plasma concentration (EC50); cited from earlier work.
Data set [1] can be described thus: Plasma pharmacokinetics after single subcutaneous dose in non-human primates (DcNP or free drug combination). To be noted: for half-life: monkey, sc. On the procedure:
To evaluate whether presenting the three drugs—e.g., DTG-3TC-TFV, LPV-RTV-TFV, EFV-LPV-TFV, ATZ-RTV-TFV or 4 drugs—e.g., LPV-RTV-3TC-TFV in a combination nanosuspension using DcNP platform could provide long-acting plasma and intracellular drug exposure, macaques were subcutaneously administered with either DcNP formulated or soluble free drug combination. The free-drug combination (control) arm consisted of two groups. In the control group, 2-4 macaques were administered at an indicated single subcutaneous dose where equivalent dug combinations are dissolved in DMSO and diluted with water.
Whole blood in EDTA tubes was immediately centrifuged and plasma was removed and frozen at −80° C. until LC-MS/MS analysis.
Plasma drug concentrations were reported in units of nM. Non-compartmental parameters were estimated from plasma profiles for free and DcNP formulations using Phoenix WinNonlin (Certara, Princeton, N.J.). The following non-compartmental parameters were estimated: area under the plasma concentration-time curve (AUC) extrapolated to infinity; terminal half-life (t1/2); apparent clearance (CL/F); and mean body residence time (MBRT) based on moments extrapolated to infinity.

For data set [2] the following is noted: cited from earlier work.
For data set [3] the following is noted: cited from earlier work. This is another data set of the same source.
For data set [4] the following is noted: cited from earlier work. This is another data set of the same source.

The term half-life denotes how long it takes for the measured level to halve. As a reminder, the log P is a log measure of how a compound divides between an organic and an aqueous phase. Take `C[C@@H]1CCO[C@H]2Cn3cc(C(=O)NCc4ccc(F)cc4F)c(=O)c(O)c3C(=O)N12` [Dolutegravir]: the EC50 with HIV-1 was 0.02 to 2.14 nM. Besides, the half-life in data set [1] (plasma) was over 400 h. Besides, the “Oral single dose formulation (plasma half-life, hours)” value (“Oral single dose formulation” below) in data set [2] (oral) was 23 h. Also, the lipophilicity (log P) in data set [3] (listed as DTG) is on record as over 2. Also, the Water solubility in data set [4] was under 95 µg/mL.

With `O=C1Nc2ccc(Cl)cc2[C@@](C#CC2CC2)(C(F)(F)F)O1` [Efavirenz], the log partition coefficient (log P) in data set [3] is 4. The Water solubility in data set [4] is 0.00855 µg/mL.

`Cc1cccc(C)c1OCC(=O)N[C@@H](Cc1ccccc1)[C@@H](O)C[C@H](Cc1ccccc1)NC(=O)[C@H](C(C)C)N1CCCNC1=O` [Lopinavir, (2S)—N-[(2S,4S,5S)-5-[[2-(2,6-dimethylphenoxy)acetyl]amino]-4-hydroxy-1,6-diphenylhexan-2-yl]-3-methyl-2-(2-oxo-1,3-diazinan-1-yl)butanamide]: the EC50 in the data set with HIV-1 was 10 to 27 nM. Moreover, the half-life in data set [1] (in vivo) lay within 250 to 350 h. Further, in data set [2] (in vivo, po), the “Oral single dose formulation” value is 2.5 h.

Take `Cc1cc(/C=C/C#N)cc(C)c1Nc1ccnc(Nc2ccc(C#N)cc2)n1` [Rilpivirine, 4-[[4-[4-[(E)-2-cyanoethenyl]-2,6-dimethylanilino]pyrimidin-2-yl]amino]benzonitrile]: the EC50 in the data set with HIV-1 was 0.7 to 1.1 nM. Further, the “log P” value in data set [3] is reported as 4.5.

For `CC(C)c1nc(CN(C)C(=O)N[C@H](C(=O)N[C@@H](Cc2ccccc2)C[C@H](O)[C@H](Cc2ccccc2)NC(=O)OCc2cncs2)C(C)C)cs1` [Ritonavir, 1,3-thiazol-5-ylmethyl N-[(2S,3S,5S)-3-hydroxy-5-[[(2S)-3-methyl-2-[[methyl-[(2-propan-2-yl-1,3-thiazol-4-yl)methyl]carbamoyl]amino]butanoyl]amino]-1,6-diphenylhexan-2-yl]carbamate], the EC50 in the data set on HIV-1 is 3.8 to 153 nM. In addition, the half-life in data set [1] (plasma) was 250 to 350 h. In addition, the “Oral single dose formulation” value in data set [2] (oral) was 2.5 h.

For the compound `C[C@H](Cn1cnc2c(N)ncnc21)OCP(=O)(O)O` [Tenofovir, [(2˜{R})-1-(6-aminopurin-9-yl)propan-2-yl]oxymethylphosphonic acid], the EC50 in the data set with HIV-1 was 40 to 8500 nM. For the same compound, in data set [3], the log partition coefficient (log P) is −1.6. Moreover, the Water solubility in data set [4] is 13000 µg/mL.

On to “[(2˜{R})-1-(6-aminopurin-9-yl)propan-2-yl]oxymethylphosphonic acid [Tenofovir]”, for which the “DcNP formulation (non-human primates) (plasma half-life, hours)” value in data set [1] (DcNP formulation, non-human primates) is over 200 to 350 h. The “Oral single dose formulation” value in data set [2] (oral) is 8 to 17 h.
